Measured values from patent publication US7605227B2, “Melanoma antigen peptide analogues” (MannKind Corporation, priority 2005, dated 2009).
Square brackets hold non-standard residues; d marks the D form. Ends that are not written are not given here. Nle = CCCC[C@H](N)C(=O)O; Nva = CCC[C@H](N)C(=O)O

What was measured:
[1] = system: T cell line specific for the native epitope (PRAME425-433); test: Cross-reactivity of PRAME425-433 analogs: IFN-gamma from native-epitope-specific T cell line; type: cell-based; settings: analog peptide at approximately 0.3 μM
Method: The analogs listed in FIGS. 26-28 were tested for various properties such as improved affinity and stability of binding, cross-reactivity with the native epitope, and immunogenicity as follows in Examples 40-48. […] The observed affinities of the analogs are reported as % binding (compared to the positive control) and ED50, and stability of binding as half time of dissociation. Cross reactivity with the native epitope was assessed by using the analog peptides to stimulate IFN-gamma secretion from a T cell line specific for the native epitope, essentially as described in Example 6. The data shown in FIGS. 26-28 were generated by stimulating with analog peptide at approximately 0.3 μM. […] In some cases, the reported values are the average of two determinations.

[2] = system: splenocytes stimulated with wild-type peptide NY-ESO-1157-165; test: NY-ESO-1 boost, ex vivo IFN-gamma production by splenocytes (ELISA); type: in vivo, mice; settings: 10 μM wild-type peptide, 3 and 6 days
Source text: Supernatants were harvested and the concentration of IFN-γ measured by ELISA.

[3] = system: target cells coated with wild-type peptide; test: Plasmid prime, NY-ESO-1 peptide boost, in vivo cytotoxicity (CFSE); set-up: species or system HHD mice; settings: plasmid entrain, peptide amplify; targets coated with wild-type NY-ESO-1 peptide
Method: (§1) These cells were then stained with CFSE^hi and CFSE^med fluorescence (4.0 μM or 1 μM, respectively, for 15 minutes) and intravenously co-injected into immunized mice with an equal number of control splenocytes stained with CFSE^lo fluorescence (0.4 μM). Eighteen hours later the specific elimination of target cells was measured by removing the spleens and PBMC from challenged animals and measuring CFSE fluorescence by flow cytometry. The relative depletion of the populations corresponding to peptide loaded splenocytes was calculated relative to the control (unloaded) population and expressed as % specific lysis.

[4] = system: target cells coated with natural peptide; test: Plasmid prime, SSX-2 peptide boost, in vivo cytotoxicity (CFSE); set-up: species or system HHD mice; settings: spleen and blood; targets coated with 20 μg/ml and 1 μg/ml natural peptide
Method: Eight groups of mice (n=4) were immunized with plasmid expressing SSX-241-49 natural epitope, by direct inoculation into the inguinal lymph nodes with 25 μg in 25 μl of PBS/each lymph node at day 0, 3, 14 and 17. This was followed by two additional peptide boosts (similar amount) at day 28 and 31, using a negative control peptide (Melan A 26-35 “EAA”), natural peptide or analogs as shown in FIG. 9.
as §1, with “To evaluate the in vivo response against natural peptide, splenocytes were isolated from littermate control HHD mice and incubated with 20 μg/mL or 1 μg/ml of natural peptide for 2 hours. These” for “These”, “CFSE^hi” for “CFSE^hi and CFSE^med”, “μM” for “μM, respectively,”, “spleen” for “the spleens”, “lysis. FIGS. 10 (spleen) and 11 (blood) show the in vivo cytotoxicity elicited by the regimens described in FIG. 7.” for “lysis.”

[5] = system: T cell lines against a natural (non-mutated) epitope (SSX-241-49); test: Cross-reactivity and functional avidity: IFN-gamma from T cell lines against natural SSX-2 41-49 epitope; type: cell-based, HHD transgenic mice; settings: IFN-gamma from T cell line raised against native SSX-2 41-49; native = 1, lower = more active;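 also: peptide analogs tested ex vivo with competent APCs, IFN-gamma in supernatant measured by ELISA, readouts include minimal triggering concentration, peak effect and concentration at peak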
HLA-A*0201 [6] = biological target: T1, HLA-A*0201 (Homo sapiens, UniProt P04439, D140Y/D185E/D98H/E176V/E277Q/G131W/G231S/I119V/I121R/I166T/I218V/L300P/L318F/N151K/N90K/P208A/P217A/Q86G/Q94H/R138H/R169H/T345S); test: Peptide binding using T2 cells (SSX-2 41-49 analogs); settings: half maximal binding of wild-type peptide relative to analog; native = 1.0
Source text: Thus, at limiting concentrations of peptide, it is a measurement of Kon mostly and at saturation levels of peptide it is a measurement of both Kon and Koff.

624.38 melanoma cells = test: Plasmid prime, SSX-2 peptide boost, ex vivo cytotoxicity against human tumor cells; type: in vivo, mice; settings: ex vivo after boost
Method: Eight groups of mice (n=4) were immunized with plasmid expressing SSX-241-49 natural epitope by direct inoculation into the inguinal lymph nodes with 25 μg in 25 μl of PBS/each lymph node at day 0, 3, 14 and 17. This was followed by two additional peptide boosts (similar amount) at day 28 and 31, using a negative control peptide (Melan A 26-35 “EAA”), natural peptide or analogs as shown in FIG. 9.

[7] = system: splenocytes stimulated with native peptide; test: pCTLR2 prime, PRAME peptide boost, ex vivo IFN-gamma ELISA; type: in vivo, HHD transgenic mice; settings: 2.5 μg peptide boost, 10 μg/ml native peptide, 48 hours
[8] = system: PRAME425-433-specific T cells; test: pCTLR2 prime, PRAME peptide boost, tetramer/CD8 co-staining; type: in vivo, HHD transgenic mice; settings: versus boost with negative control peptide
[9] = system: native epitope coated cells; test: pCTLR2 prime, PRAME peptide boost, in vivo cytotoxicity (CFSE); set-up: species or system HHD transgenic mice
HLA-A*0201 [10] = biological target: T1, HLA-A*0201; test: iTopia affinity assay (ED50); type: binding; settings: PRAME425-433 analogs; printed as reduced / less (lower affinity)
Source text: Avidin-coated microtiter plates containing class I monomer loaded with a so-called placeholder peptide were used to evaluate peptide binding, affinity and off-rate. The monomer-coated plates were supplied as part of the iTopia Epitope Discovery System Kit (Beckman Coulter, Inc., San Diego, Calif., USA). Assay buffers, anti-MHC-FITC mAb and beta2-microglobulin and control peptides were also supplied with the kits.
Plates were read on the fluorometer. Sigmoidal dose response curves were generated using Prism software.

| Compound | IFN-gamma production upon ex vivo re-stimulation, in words [2] | in vivo cytotoxicity (% specific lysis), in words [3] | Cross-reactivity and fct avidity (native to analogs)* [5] | Relative affinity (1/RA) (HLA-A*0201 [6]) | other results |
| --- | --- | --- | --- | --- | --- |
| Lys P1 analog: PRAME425-433 analog with Lys for Ser at P1 (KLLQHLIGL) | – | – | – | – | IFN-γ elicited, % of the native peptide [1]: 40% |
| L158V C165V: NY-ESO-1 157-165 analog, L158V and C165V (SVLMWITQV; UniProt P78358 157-165, looked up, variant L158V C165V) | increased amounts of IFN-gamma | effect in the same range with wild-type peptide or the C165V mutant | – | – | – |
| S157K L158V C165V: NY-ESO-1 157-165 analog, triple mutant (KVLMWITQV; UniProt P78358 157-165, looked up, variant S157K L158V C165V) | – | effect in the same range with wild-type peptide or the C165V mutant | – | – | – |
| FASEKIFYV [SSX2 41-49 (K41F)] | – | – | 0.3 | 1.5 | in vivo cytotoxicity (% specific lysis), in words [4]: increased activity relative to the natural peptide |
| S157F L158V C165V: NY-ESO-1 157-165 analog, triple mutant (FVLMWITQV; UniProt P78358 157-165, looked up, variant S157F L158V C165V) | increased amounts of IFN-gamma | – | – | – | – |
| YASEKIFYV [SSX2 41-49 (K41Y)] | – | – | 3 | 1.7 | in vivo cytotoxicity (% specific lysis), in words [4]: increased activity relative to the natural peptide |
| CC[C@H](C)[C@H](NC(=O)[C@H](Cc1ccc(O)cc1)NC(=O)[C@H](Cc1ccccc1)NC(=O)[C@@H](NC(=O)[C@H](CCCCN)NC(=O)[C@H](CCC(=O)O)NC(=O)[C@H](CO)NC(=O)[C@@H](NC(=O)[C@@H](N)Cc1ccccc1)C(C)C)[C@@H](C)CC)C(=O)O [SSX2 41-49 (K41F, A42V, V49I)] | – | – | 0.3 | 1.6 | cytotoxicity against human tumor cells, in words (624.38 melanoma cells): increased cytotoxicity against human tumor cells |
| T{Nva}LQHLIG{Nle} (T[Nva]LQHLIG[Nle]) [S425T L426Nva L433Nle] | – | – | – | – | IFN-γ production by splenocytes (ELISA), in words [7]: ex vivo cytokine production; expansion of native epitope-specific T cells (tetramer), in words [8]: significantly higher than in mice primed with plasmid and boosted with the negative control peptide; in vivo cytotoxicity against native epitope, in words [9]: capable of expanding the immunity against the native epitope |
| Ala substitution: PRAME425-433 analog with Ala at the PΩ anchor position (SLLQHLIGA; UniProt P78395 425-433, looked up, variant L433A) | – | – | – | – | ED50 change relative to native peptide (HLA-A*0201 [10]): more than 10 fold |
| SNvaLMWITQV (S[Nva]LMWITQV) [Nyeso-1 157-165 (L158Nva, C165V))] | large levels of IFN-gamma more rapidly | substantial, constant cytotoxicity | – | – | – |
